Results reported in PubChem BioAssay (NCI).
Values joined by “and” are separate entries in the source; they are usually repeats but may differ in a detail not shown here. Equal values may be shown once.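 Tested at 5 concentrations; 48 h exposure; 96-well plates; endpoints linearly interpolated, else capped at highest concentration. GI50 = concentration required for 50% inhibition of growth. The concentration for full growth arrest is given as TGI.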

How the values were obtained:
Assay in all cases: inhibition of tumour cell growth, NCI panel, 48 h
HL-60(TB) leukemia = system: HL-60(TB) leukemia
HCT-116 colon = system: HCT-116 colon
HT29 colon = system: HT29 colon
NCI/ADR-RES ovarian = system: NCI/ADR-RES ovarian
SK-MEL-2 melanoma = system: SK-MEL-2 melanoma
CAKI-1 renal = system: CAKI-1 renal
HOP-92 NSCLC = system: HOP-92 NSCLC
HCC-2998 colon = system: HCC-2998 colon
SK-OV-3 ovarian = system: SK-OV-3 ovarian
SF-539 CNS = system: SF-539 CNS

Structure (SMILES) | GI50 (HL-60(TB) leukemia) | TGI (HL-60(TB) leukemia) | GI50 (HCT-116 colon) | TGI (HCT-116 colon) | GI50 (HT29 colon) | TGI (HT29 colon) | GI50 (NCI/ADR-RES ovarian) | TGI (NCI/ADR-RES ovarian) | GI50 (SK-MEL-2 melanoma) | TGI (SK-MEL-2 melanoma) | GI50 (CAKI-1 renal) | TGI (CAKI-1 renal) | GI50 (HOP-92 NSCLC) | TGI (HOP-92 NSCLC) | GI50 (HCC-2998 colon) | TGI (HCC-2998 colon) | GI50 (SK-OV-3 ovarian) | TGI (SK-OV-3 ovarian) | GI50 (SF-539 CNS) | TGI (SF-539 CNS)
COc1c(CCC[P+](c2ccccc2)(c2ccccc2)c2ccccc2)cc2c(c1OC)OCO2 | 0.339 µM | 1.48 µM | 1.2 µM | > 100 µM | 1.08 µM | 18.8 µM | > 100 µM | > 100 µM | 3.03 µM | 14.1 µM | 2.45 µM | 7.35 µM | 0.507 µM | 4.93 µM | 2.22 µM | 14.6 µM | 2.56 µM | 8.45 µM | 2.1 µM | 13.7 µM
CN(C)S(=O)(=O)c1ccc(NC(=O)COC(=O)c2ccc(S(=O)(=O)N3CCCCC3)cc2)cc1 | > 100 µM | > 100 µM | > 100 µM | > 100 µM | > 100 µM | > 100 µM | > 100 µM | > 100 µM | > 100 µM | > 100 µM | > 100 µM | > 100 µM | > 100 µM | > 100 µM | > 100 µM | > 100 µM | > 100 µM | > 100 µM | > 100 µM | > 100 µM
CCN(Cc1ccc(F)c(F)c1)c1ccc(CO)c(Cl)c1 | 5.42 µM | 29.3 µM | 0.0911 µM | 11.4 µM | 4.52 µM | 19.1 µM | 11.4 µM | 27.4 µM | 4.08 µM | 19.5 µM | 3.92 µM | 27.5 µM | 0.835 µM | 12.2 µM | 5.59 µM | 21.6 µM | 5.94 µM | 19.3 µM | 13.7 µM | 27.3 µM
N#Cc1cnc2cc(OC[C@H](O)CO)c(NC(=O)CC3CSSC3)cc2c1Nc1ccc(OCc2cccc(F)c2)c(Cl)c1 | 0.806 µM | 1.93 µM | 0.0977 µM | 0.208 µM | 0.221 µM | 0.836 µM | 2.72 µM | 5.1 µM | 0.638 µM | 1.4 µM | 10.1 µM | 27.6 µM | 2.23 µM | 8.04 µM | 0.796 µM | 1.55 µM | 0.748 µM | 1.48 µM | 0.791 µM | 1.55 µM
C=C1C(=O)O[C@H]2[C@H]1CC/C(COC(=O)NCc1ccccc1OC)=C\CC[C@@]1(C)O[C@@H]21 | 1.61 µM | 5.77 µM | 0.548 µM | 1.86 µM | 1.22 µM | 3.43 µM | 2.26 µM | 6.12 µM | 1.71 µM | 3.89 µM | 1.38 µM | 2.77 µM | 1.49 µM | 3.72 µM | 1.82 µM | 3.52 µM | 13.5 µM | 26.8 µM | 1.53 µM | 3.04 µM
COc1cccc(/C=C/C(=O)c2cccc(Nc3nc(Nc4ccccc4)nc(Nc4ccccc4)n3)c2)c1 | 10.5 µM | 43.6 µM | 1.42 µM | 2.93 µM | 4.36 µM | > 81.7 µM | 27.3 µM | > 100 µM | > 33.4 µM | > 100 µM | > 22.4 µM | > 60.8 µM | 1.24 µM | 50.5 µM | 7.35 µM | 26.2 µM | > 78.5 µM | > 100 µM | 15.6 µM | 34.4 µM
O=C(c1ccc(F)cc1)c1cccc(C(=O)c2ccc(F)cc2)n1 |  | > 100 µM |  | 81.8 µM |  | > 100 µM |  | > 100 µM |  | 42.9 µM |  | > 100 µM |  | 44.4 µM |  | > 100 µM |  | 52.5 µM |  | 56.3 µM
Cc1sc(C(=O)Nc2cc(C(=O)NCCCN(C)C)n(C)c2)cc1NC(=O)CCCN1C(=O)c2cccc3cccc(c23)C1=O | > 100 µM | > 100 µM | > 100 µM | > 100 µM | > 100 µM | > 100 µM | > 100 µM | > 100 µM | > 100 µM | > 100 µM | > 100 µM | > 100 µM | > 100 µM | > 100 µM | > 100 µM | > 100 µM | > 100 µM | > 100 µM | > 100 µM | > 100 µM
O=C(c1ccccc1)C1N=NCC1c1ccc([N+](=O)[O-])cc1 (centres undefined) |  | 67.3 µM |  | > 100 µM |  | > 100 µM |  | > 100 µM |  | > 100 µM |  | 44.5 µM |  | 88.1 µM |  | > 100 µM |  | > 100 µM |  | > 100 µM
CCN(CC)CCn1ccc(=O)c2cc3c(=O)ccn(CCN(CC)CC)c3c(C)c21 |  | 3.54 µM |  | 9.08 µM |  | 12.7 µM |  | 5.2 µM |  | 24.5 µM |  | 18.3 µM |  | 19.5 µM |  | 2.93 µM |  | 15.9 µM |  | 24.2 µM
Nc1ccn(Cc2ccc(C34CC5CC(CC(C5)C3)C4)c(O)c2)c(=O)n1 | 62.9 µM | > 100 µM | > 100 µM | > 100 µM | > 100 µM | > 100 µM | > 100 µM | > 100 µM | 76.1 µM | > 100 µM | > 100 µM | > 100 µM | 22.5 µM | 71.4 µM | 32.1 µM | > 100 µM | > 100 µM | > 100 µM | 42 µM | > 100 µM
C[C@@H](C(=O)Nc1ccc(Cl)cc1)C1CCC(c2ccnc3ccc(F)cc23)CC1 (some centres undefined) | 5.22 µM | 24.7 µM | 3.13 µM | 21.6 µM | 5.81 µM | 40.4 µM | 10.1 µM | 48 µM | 9.81 µM | 29.8 µM | 6.23 µM | > 100 µM | 2.85 µM | 9.15 µM | 4.35 µM | 24.3 µM | 15.3 µM | 73.8 µM | 11.8 µM | 47.7 µM
CC(C)NC[C@@H](C(=O)N1CCN(c2ncnc3c2[C@H](C)C[C@H]3O)CC1)c1ccc(Cl)cc1 | > 10 µM and 39.4 µM | > 100 µM | > 10 µM and 23.8 µM | > 100 µM | 1.58 µM and 3.45 µM | > 100 µM | > 100 µM | > 100 µM | > 10 µM and 33 µM | > 80.2 µM | > 10 µM and 36.1 µM | > 100 µM | 0.407 µM and 1.13 µM | 6.8 µM and 11.6 µM |  | > 100 µM | 0.596 µM and 0.783 µM | > 100 µM | 0.401 µM and 0.396 µM | > 10 µM and 40.1 µM
